The target in data set [1] is T1, HiScribe T7 RNA synthesis kit (IVT reaction, DNA template encoding Lucia) (Escherichia phage T7, UniProt P00573).
T1 construct: purchased New England Biolabs
The data set can be described thus: In vitro transcription (IVT) of mRNAs containing cap analogs: yield / incorporation. In kind it is biochemical. As to the method:
mRNA was transcribed from DNA template encoding Lucia using HiScribe T7 RNA synthesis kit (New England Biolabs, Ipswich, MA, USA). N^1-Methylpseudo-UTP (TniLink, San Diego, CA, USA) was used in replaced of UTP for the reaction. For 5′ capping of the mRNA, the cap analog compounds (e.g., Compounds 1-4) described herein, or CleanCap (TriLink, San Diego, CA, USA), were added to the IVT reaction, as indicated. The reactions were performed for 4 hours at 37° C.
Purification of the transcript was performed by TURBO DNase digestion (ThermoFisher Scientific, Waltham, MA, USA) for 30 min at 37° C. followed by RNAClean XP beads (Beckman Coulter) clean up. The RNA bound beads were washed 3 times with freshly prepared 70% ethanol, air dried for 15 minutes followed by elution in 200 μL of nuclease free water. The purified mRNA was quantified using nanodrop (ThermoFisher Scientific, Waltham, MA, USA) and analyzed using Tapestation (Agilent, Santa Clara, CA, USA).

The next data set has as its system Balb/c mice. The data set can be described thus: In vivo expression of Lucia mRNAs containing cap analogs. The conditions noted are these: Lucia mRNA capped with the compound, compared with Cap1 (FIG. 1C). As to the method: Candidate RNAs were formulated using proprietary lipid-based delivery vehicles (e.g., as described in WO 2020/069442 and WO 2023/014931) and administered to Balb/c mice at a dose of 15 μg per mouse. In life serum draws were conducted via submandibular vein at selected time points starting 2 hours post-dose. Serum was diluted 5 μL into […] of QUANTI-Luc reagent (InvivoGen, San Diego, CA, USA) and measured immediately using a plate reader (Molecular Devices, San Jose, CA, USA).

Data set [2] concerns human Dendritic Cells (differentiated from PBMCs). Put plainly: Cap immunogenicity by multiplexed cytokine screening (Luminex) in dendritic cells. The settings on record: human DCs, 24 hours, compared with Cap1 (FIGS. 3A-3F). In kind it is cell-based. As to the method: Fresh human Dendritic Cells (differentiated from PBMCs by GM-CSF+IL-4 stimulation) were plated at 5e4 cells per well in 96 well flat TC treated dish. mRNA was prepared in Lipofectamine MessengerMAX transfection reagent according to manufacturer's instructions at 2ng/1 k cells. Briefly, mRNA was diluted to 0.02 μg/μl in Opti-MEM reduced serum medium and mixed 1:1 with MessengerMAX to a concentration of 0.01 μg/μl. Two 1:10 dilutions were performed and 10 or 2.5 μl per well of each dilution was added directly to DCs in resulting doses of 2, 0.5, 0.2, 0.05 and 0.02 ng per 1000 DCs. Immunostimulatory RIG-1 agonist Hairpin RNA (3p-hpRNA, InvivoGen) and double stranded RNA (5′ ppp-dsRNA, InvivoGen) were used as controls and formulated as described above.
Stimulated DCs were incubated for 24 hours at 37° C. with 5% CO2. Supernatant was collected and immediately frozen at −80° C. It was subsequently thawed and prepared for Luminex xMAP analysis using a Human Inflammation 20-Plex ProcartaPlex Panel kit (ThermoFisher) according to the manufacturer's instructions. Data was acquired on a MAGPIX system (Luminex xMAP instrument) and pg/mL values for each analyte were derived from a standard curve generated with kit components. Values outside the range of the standard curve were reported as mean fluorescence intensity (MFI).

T1 sequence (P00573 whole entry): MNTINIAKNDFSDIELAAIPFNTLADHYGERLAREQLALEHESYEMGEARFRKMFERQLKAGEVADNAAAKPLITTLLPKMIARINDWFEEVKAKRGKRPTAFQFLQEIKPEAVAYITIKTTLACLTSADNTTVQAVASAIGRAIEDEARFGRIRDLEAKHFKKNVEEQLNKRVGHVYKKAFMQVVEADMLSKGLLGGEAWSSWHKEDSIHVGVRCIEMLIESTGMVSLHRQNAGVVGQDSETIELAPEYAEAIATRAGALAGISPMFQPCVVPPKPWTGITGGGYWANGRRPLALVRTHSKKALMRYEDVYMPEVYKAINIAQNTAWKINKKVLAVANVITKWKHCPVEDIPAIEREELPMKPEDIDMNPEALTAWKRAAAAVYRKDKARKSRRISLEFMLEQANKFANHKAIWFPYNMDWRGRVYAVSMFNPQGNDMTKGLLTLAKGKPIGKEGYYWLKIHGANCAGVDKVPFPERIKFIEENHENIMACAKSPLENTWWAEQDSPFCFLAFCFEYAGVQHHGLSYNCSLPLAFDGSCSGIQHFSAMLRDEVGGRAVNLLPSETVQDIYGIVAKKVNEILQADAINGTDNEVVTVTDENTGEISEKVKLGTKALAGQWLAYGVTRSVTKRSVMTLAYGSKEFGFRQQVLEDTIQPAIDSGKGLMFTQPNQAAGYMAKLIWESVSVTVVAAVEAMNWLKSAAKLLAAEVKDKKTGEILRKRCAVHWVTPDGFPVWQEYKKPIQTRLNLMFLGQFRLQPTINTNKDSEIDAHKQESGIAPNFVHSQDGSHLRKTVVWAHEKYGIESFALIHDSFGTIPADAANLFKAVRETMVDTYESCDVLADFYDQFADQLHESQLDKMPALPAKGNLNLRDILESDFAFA

Turning to `CC[n+]1cn([C@@H]2O[C@H](COP(=O)(O)OP(=O)([O-])OP(=O)(O)OC[C@H]3O[C@@H](n4cnc5c(N)ncnc54)[C@H](OC)[C@@H]3OP(=O)(O)OC[C@H]3O[C@@H](n4cnc5c(=O)[nH]c(N)nc54)[C@H](O)[C@@H]3O)[C@@H](O)[C@H]2O)c2nc(N)[nH]c(=O)c21` [Compound 1], the IVT yield result in data set [1] (mRNA capped with the compound, compared with Cap1 (FIG. 1A)) is “equivalently”. For the same compound, the “incorporation into IVT” value in data set [1] (trinucleotide cap modified at the 7G position) is “successfully incorporated”. The in vivo expression result in the data set on Balb/c mice is given as “equivalently”.

Regarding `CC[n+]1cn([C@@H]2O[C@H](COP(=O)(O)OP(=O)(O)OP(=O)(O)OC[C@H]3O[C@@H](n4cnc5c(N)ncnc54)[C@H](OC)[C@@H]3O[P@@]([O-])(=S)OC[C@H]3O[C@@H](N4C=NC5C(=O)NC(N)=NC54)[C@H](O)[C@@H]3O)[C@@H](O)[C@H]2O)c2nc(N)[nH]c(=O)c21` (stereo partly shown) [Compound 3], in data set [2], the “immunogenicity across key cytokine markers (IFNγ, IFNα, IP-10, IL-1α, TNFα)” value is reported as “lower”.

(Values after patent US20250026779A1 (priority 2023, published 2025).)
